Data published in patent US20230310436A1, “COMBINATION THERAPY FOR CANCERS WITH KRAS MUTATION” (COTHERA BIOSCIENCE, INC., priority 2019, published 2023).

Key:
[1] = test system: KRAS^G12A-NSCLC H1573 cell line; assay: Ex vivo Edu proliferation test (MI, GI %), H1573; assay type: cell-based; conditions: Table 1; 4 days; uM: osimertinib 0.5, afatinib 0.2, cobimetinib 0.4, trametinib 0.02, TAK-733 0.18, palbociclib 0.15, ribociclib 5
Experimental: (§1) For ex vivo drug testing, the cells were exposed to a combination of drugs or single drugs for 4 days or 7 days. Following exposure with drug, 1,000-5,000 cells were labeled with 5-ethynyl-2′-deoxyuridine (Edu) to assess the tumor cell proliferation rates. The labeling lasted 24 hours in the presence of drug exposure. In the control group, epithelial tumor cells received no drug exposure with media change (with 0.1% DMSO), but were similarly labeled with Edu. The labeled cells were fixed and blocked with 3% BSA and 0.5% Triton X-100 for 2 hours at room temperature, followed by staining with Hoechst 33342 and EpCAM antibody (1:4000) in PBS solution containing 0.5% Triton X-100 overnight at 4° C. Subsequently, the cells were rinsed with PBST then incubated with Alexa Fluor® 647 conjugated goat-antimouse secondary antibody for 30 minutes at room temperature.
(§2) The incorporated Edu was detected by Click-iT reaction where fixed cells were incubated with a reaction mixture containing 1× Click-iT Edu reaction buffer, CuSO4, and azide-conjugated Alexa Fluor dye in the dark. The stained cells were washed with PBS two times before image acquisition and analysis.
(§3) For image acquisition and analysis, the stained tumor cells were imaged by a high-content screening (HCS) platform (Thermo Scientific CellomicsArrayScanXTi HCS reader). The 10× objective was used to collect images. Twenty-five fields were imaged for each well for the analysis. From the images three fluorescent signals were obtained from the HCS reader. Blue fluorescent signals recorded nucleus signals stained with Hoechst 33342, green fluorescent signal detected the Edu incorporated in newly synthesized DNA, and red fluorescent signal detected the EpCAM positive epithelial cells population.
The MI (Maximum Inhibition Index) was calculated using the EpCAM and Edu positive readout (Tables 1-4). MI=Edu positive cells in control/Edu positive cells in treatment. MI4 indicates an MI value after 4 days of treatment and MI7 indicates an MI values after 7 days of treatment. […] GI % is calculated as GI %=(1−1/MI)*100%.

[2] = test system: KRAS^G12A-NSCLC H2009 cell line; assay: Ex vivo Edu proliferation test (MI, GI %), H2009; assay type: cell-based; conditions: Table 1; 4 days; uM: osimertinib 0.5, afatinib 0.2, cobimetinib 0.4, trametinib 0.02, TAK-733 0.18, palbociclib 0.15, ribociclib 5
Experimental: as §1, §2, §3
(§4) The MI (Maximum Inhibition Index) was calculated using the EpCAM and Edu positive readout (Tables 1-4). MI=Edu positive cells in control/Edu positive cells in treatment. MI4 indicates an MI value after 4 days of treatment and MI7 indicates an MI values after 7 days of treatment. The MI and growth inhibition rate (GI %) values for KRAS^G12A-NSCLC (H1573 and H2009), KRAS^G12C-NSCLC (H358, H23 and H2030), KRAS^G12V-NSCLC (H2291 and H2444) and KRAS^G12D-NSCLC (H1588 and SK-LU-1) cell lines are shown in Tables 1-4, respectively. GI % is calculated as GI %=(1−1/MI)*100%.

[3] = test system: KRAS^G12C-NSCLC H358 cell line; assay: Ex vivo Edu proliferation test (MI, GI %), H358; assay type: cell-based; conditions: Table 2a; 7 days; uM: osimertinib 0.5, afatinib 0.2, cobimetinib 0.4, trametinib 0.02, palbociclib 0.15, ribociclib 5
Experimental: as §1, §2, §3, §4

[4] = test system: KRAS^G12C-NSCLC H23 cell line; assay: Ex vivo Edu proliferation test (MI, GI %), H23; assay type: cell-based; conditions: Table 2a; 7 days; uM: osimertinib 0.5, afatinib 0.2, cobimetinib 0.4, trametinib 0.02, palbociclib 0.15, ribociclib 5
Experimental: as §1, §2, §3, §4

[5] = test system: KRAS^G12C-NSCLC H2030 cell line; assay: Ex vivo Edu proliferation test (MI, GI %), H2030; assay type: cell-based; conditions: Table 2a; 7 days; uM: osimertinib 0.5, afatinib 0.2, cobimetinib 0.4, trametinib 0.02, palbociclib 0.15, ribociclib 5
Experimental: as §1, §2, §3, §4

[6] = test system: KRAS^G12V-NSCLC H2291 cell line; assay: Ex vivo Edu proliferation test (MI, GI %), H2291; assay type: cell-based; conditions: Table 3; 7 days; uM: osimertinib 0.5, afatinib 0.2, trametinib 0.02, TAK-733 0.18, palbociclib 0.15, ribociclib 5
Experimental: as §1, §2, §3, §4

[7] = test system: KRAS^G12V-NSCLC H2444 cell line; assay: Ex vivo Edu proliferation test (MI, GI %), H2444; assay type: cell-based; conditions: Table 3; 4 days; uM: osimertinib 0.5, afatinib 0.2, trametinib 0.02, TAK-733 0.18, palbociclib 0.15, ribociclib 5
Experimental: as §1, §2, §3, §4

[8] = test system: KRAS^G12D-NSCLC H1588 cell line; assay: Ex vivo Edu proliferation test (MI, GI %), H1588; assay type: cell-based; conditions: Table 4; 4 days; uM: osimertinib 0.5, afatinib 0.2, cobimetinib 0.4, trametinib 0.02, TAK-733 0.18, palbociclib 0.15, ribociclib 5
Experimental: as §1, §2, §3, §4

[9] = test system: KRAS^G12D-NSCLC SK-LU-1 cell line; assay: Ex vivo Edu proliferation test (MI, GI %), SK-LU-1; assay type: cell-based; conditions: Table 4; 4 days; uM: osimertinib 0.5, afatinib 0.2, cobimetinib 0.4, trametinib 0.02, TAK-733 0.18, palbociclib 0.15, ribociclib 5
Experimental: as §1, §2, §3, §4

[10] = test system: KRAS^G12C NSCLC CDX model H358; assay type: in vivo

Row | SMILES | GI % (Growth Inhibition Rate), H1573 [1] | MI 4 (Maximum Inhibition Index), H1573 [1] | GI % (Growth Inhibition Rate), H2009 [2] | MI 4 (Maximum Inhibition Index), H2009 [2] | GI % (Growth Inhibition Rate), H358 [3] | MI 7 (Maximum Inhibition Index), H358 [3] | GI % (Growth Inhibition Rate), H23 [4] | MI 7 (Maximum Inhibition Index), H23 [4] | GI % (Growth Inhibition Rate), H2030 [5] | MI 7 (Maximum Inhibition Index), H2030 [5] | GI % (Growth Inhibition Rate), H2291 [6] | MI 7 (Maximum Inhibition Index), H2291 [6] | GI % (Growth Inhibition Rate), H2444 [7] | MI 4 (Maximum Inhibition Index), H2444 [7] | GI % (Growth Inhibition Rate), H1588 [8] | MI 4 (Maximum Inhibition Index), H1588 [8] | GI % (Growth Inhibition Rate), SK-LU-1 [9] | MI 4 (Maximum Inhibition Index), SK-LU-1 [9] | also measured
1 | CC(=O)c1c(C)c2cnc(Nc3ccc(N4CCNCC4)cn3)nc2n(C2CCCC2)c1=O [Palbociclib, palbociclib] | 92.17% | 12.77 | 8.82% | 1.10 | 60.31% | 2.53 | 41.73% | 1.72 | 52.39% | 2.10 | 81.25% | 5.36 | 59.59% | 2.47 | 53.52% | 2.15 | 73.45% | 3.77 | 
2 | C=CC(=O)Nc1cc(Nc2nccc(-c3cn(C)c4ccccc34)n2)c(OC)cc1N(C)CCN(C)C [Osimertinib, osimertinib] | 67.71% | 3.10 | 35.30% | 1.55 | 22.86% | 1.30 | 13.11% | 0.89 | 57.39% | 2.35 | 21.19% | 1.30 | 66.51% | 2.99 | 55.11% | 2.23 | 35.73% | 1.56 | 
3 | Cn1c(=O)c(F)c(Nc2ccc(I)cc2F)c2c(=O)n(C[C@@H](O)CO)cnc21 [TAK-733] | 89.62% | 9.64 | 62.18% | 2.64 |  |  |  |  |  |  | 98.27% | 57.57 | 99.01% | 100.76 | 36.93% | 1.59 | 77.44% | 4.43 | 
4 | O=C(c1ccc(F)c(F)c1Nc1ccc(I)cc1F)N1CC(O)([C@@H]2CCCCN2)C1 [Cobimetinib, cobimetinib] | 96.36% | 27.49 | 67.99% | 3.12 | 97.48% | 39.68 | 75.83% | 4.25 | 92.44% | 13.21 |  |  |  |  | 48.38% | 1.94 | 64.82% | 2.84 | 
5 | N.N.[Cl][Pt][Cl] [cisplatin] |  |  |  |  |  |  |  |  |  |  |  |  |  |  |  |  |  |  | Mean Tumor Volume, study day 0 ([10]; Table 11A, day 0, mg/kg: osimertinib 10, cobimetinib 5, TAK-733 10, palbociclib 20 daily p.o., cetuximab 1, cisplatin 4 per week i.p., 21 days, then 7 days off): 164.52 ± 22.82 mm^3; Mean Tumor Volume, study day 3 ([10]; Table 11A, day 3, mg/kg: osimertinib 10, cobimetinib 5, TAK-733 10, palbociclib 20 daily p.o., cetuximab 1, cisplatin 4 per week i.p., 21 days, then 7 days off): 249.59 ± 33.58 mm^3; Mean Tumor Volume, study day 7 ([10]; Table 11A, day 7, mg/kg: osimertinib 10, cobimetinib 5, TAK-733 10, palbociclib 20 daily p.o., cetuximab 1, cisplatin 4 per week i.p., 21 days, then 7 days off): 438.18 ± 93.81 mm^3; Mean Tumor Volume, study day 10 ([10]; Table 11A, day 10, mg/kg: osimertinib 10, cobimetinib 5, TAK-733 10, palbociclib 20 daily p.o., cetuximab 1, cisplatin 4 per week i.p., 21 days, then 7 days off): 489.05 ± 102.01 mm^3; Mean Tumor Volume, study day 14 ([10]; Table 11A, day 14, mg/kg: osimertinib 10, cobimetinib 5, TAK-733 10, palbociclib 20 daily p.o., cetuximab 1, cisplatin 4 per week i.p., 21 days, then 7 days off): 618.71 ± 145.67 mm^3; Mean Tumor Volume, study day 17 ([10]; Table 11A, day 17, mg/kg: osimertinib 10, cobimetinib 5, TAK-733 10, palbociclib 20 daily p.o., cetuximab 1, cisplatin 4 per week i.p., 21 days, then 7 days off): 685.80 ± 180.07 mm^3; Mean Tumor Volume, study day 21 ([10]; Table 11A, day 21, mg/kg: osimertinib 10, cobimetinib 5, TAK-733 10, palbociclib 20 daily p.o., cetuximab 1, cisplatin 4 per week i.p., 21 days, then 7 days off): 828.32 ± 220.11 mm^3; Mean Tumor Volume, study day 24 ([10]; Table 11A, day 24, mg/kg: osimertinib 10, cobimetinib 5, TAK-733 10, palbociclib 20 daily p.o., cetuximab 1, cisplatin 4 per week i.p., 21 days, then 7 days off): 958.50 ± 207.93 mm^3; Mean Tumor Volume, study day 28 ([10]; Table 11A, day 28, mg/kg: osimertinib 10, cobimetinib 5, TAK-733 10, palbociclib 20 daily p.o., cetuximab 1, cisplatin 4 per week i.p., 21 days, then 7 days off): 1079.33 ± 275.10 mm^3; Tumor volume (mm^3) day 0 ([10]; Table 11C, day 0, doses as Table 11A (TAK-733 10 mg/kg)): 164.52 ± 22.82 mm^3; Tumor volume (mm^3) day 28 ([10]; Table 11C, day 28, doses as Table 11A (TAK-733 10 mg/kg)): 1079.33 ± 275.10 mm^3; TGI % ([10]; Table 11C, day 28 vs day 0, doses as Table 11A (TAK-733 10 mg/kg)): −10.2%; tumor growth inhibition, in words ([10]; Tables 11A and 11C, cisplatin at 4 mg/kg): no effect on inhibiting tumor growth
